# Experimental data: the supplement of paper PMC11208160
# Experiment: recombinant UMI read abundance after kanamycin selection (control-corrected) (log10(CPM+1)); higher = more efficient recombination; extreme values may be limits of the assay; sequences stand for … in AGTGCAGAGAAAATCGGCCAGTTTTCTCTGCCTGCAGTCCGCATGCCGTGGGACCCCTTGGGTTCTAACCTGTTGCCTAGATTTATGCAGCGGACTGCCTTTCTCCCAAAGTGATAAACCGG…AGGTTGGTTTCACT; site = the 11-nt donor
# Procedure, shortened: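 Pooled Escherichia coli screen of donor and donor-binding-loop pairs for the IS621 bridge recombinase. Each pair sits with a 12-nt UMI on a plasmid carrying a promoterless kanamycin gene. The library was co-electroporated with a target plasmid encoding a fixed target and T7-inducible recombinase, then plated with IPTG (0.07 mM) plus kanamycin, or unselected, each in two replicates. Recombinant UMIs were PCR-amplified across the donor–target junction and sequenced. Counts became CPM, averaged over replicates, scaled by control-derived factors and reported as log10(CPM+1).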
row,Sequence,recombinant UMI read abundance (log10)
1,GATTAGACATGGACCGGTTTTCCCGGTAATCCGTATTTGAC (site GATTTGACTGT),0
2,GATTATGCATGGACCGGTTTTCCCGGTAATCCGTATTTGGA (site AATTATGCTTC),0.871
3,GATTATGCATGGACCGGTTTTCCCGGTAATCCGTATTTGGA (site CATTATGCTTC),1.13
4,GATTATGCATGGACCGGTTTTCCCGGTAATCCGTATTTGGA (site GATTATGCTTC),0.861
5,GATTATGCATGGACCGGTTTTCCCGGTAATCCGTATTTGGA (site TATTATGCTTC),0.882
6,GATTCATCATGGACCGGTTTTCCCGGTAATCCGTATTTGAG (site GATTCATCTCT),1.31
7,GATTGGCCATGGACCGGTTTTCCCGGTAATCCGTATTTGCG (site GATTGGCCTCG),0.115
8,GATTGTACATGGACCGGTTTTCCCGGTAATCCGTATTTGAC (site GATTGAACTGT),0
9,GATTGTACATGGACCGGTTTTCCCGGTAATCCGTATTTGAC (site GATTGCACTGT),0
10,GATTGTACATGGACCGGTTTTCCCGGTAATCCGTATTTGAC (site GATTGGACTGT),0
11,GATTGTACATGGACCGGTTTTCCCGGTAATCCGTATTTGAC (site GATTGTACTGT),0.604
12,GATTGTCCATGGACCGGTTTTCCCGGTAATCCGTATTTGCT (site GATTATCCTAG),0
13,GATTGTCCATGGACCGGTTTTCCCGGTAATCCGTATTTGCT (site GATTCTCCTAG),0
14,GATTGTCCATGGACCGGTTTTCCCGGTAATCCGTATTTGCT (site GATTGTCCTAG),0
15,GATTGTCCATGGACCGGTTTTCCCGGTAATCCGTATTTGCT (site GATTTTCCTAG),0
16,GATTTCGCATGGACCGGTTTTCCCGGTAATCCGTATTTGTC (site GATTTCGCTGA),1.51
17,GATTTGACATGGACCGGTTTTCCCGGTAATCCGTATTTGAC (site GATTAGACTGT),0
18,GATTTGACATGGACCGGTTTTCCCGGTAATCCGTATTTGAC (site GATTCGACTGT),0
19,GATTTGACATGGACCGGTTTTCCCGGTAATCCGTATTTGAC (site GATTGGACTGT),0
20,GATTTGACATGGACCGGTTTTCCCGGTAATCCGTATTTGAC (site GATTTGACTGT),0.525
21,GCAAAAACATGGACCGGTTTTCCCGGTAATCCGTATTTGCT (site GCAAAAACTAG),0.226
22,GCAAAAACATGGACCGGTTTTCCCGGTAATCCGTATTTGCT (site GCCAAAACTAG),0
23,GCAAAAACATGGACCGGTTTTCCCGGTAATCCGTATTTGCT (site GCGAAAACTAG),0
24,GCAAAAACATGGACCGGTTTTCCCGGTAATCCGTATTTGCT (site GCTAAAACTAG),0
25,GCAAACCCATGGACCGGTTTTCCCGGTAATCCGTATTTGAT (site GCAAACCCTAT),1.75
26,GCAAACGCATGGACCGGTTTTCCCGGTAATCCGTATTTGGT (site GCAAACGCTAC),1.71
27,GCAAATTCATGGACCGGTTTTCCCGGTAATCCGTATTTGTA (site GCAAATTCTTA),1.32
28,GCAACTGCATGGACCGGTTTTCCCGGTAATCCGTATTTGCC (site GCAACTGCTGG),0
29,GCAACTGCATGGACCGGTTTTCCCGGTAATCCGTATTTGCC (site GCCACTGCTGG),0
